# In patent publication US11613538B2, “Method of inhibiting or reducing a viral infection” (PTC Therapeutics, Inc., priority 2009, dated 2023):
# Experiments:
# cancer in patients = test: Treatment of individual cancer patients (clinical parameters and tumor markers); type: in vivo, human; conditions: monotherapy, in words
# Procedure: The arrow symbol represents the timepoint at which docetaxel was reduced to 60 mg/m2.
# HCV genotype 2a replicon = test: HCV subgenomic replicon assay, genotype 2a; type: cell-based; conditions: Hepatitis C virus
# [1] = test system: hypoxia-induced VEGF production in HeLa cells; test: cells; type: cell-based, human
smiles,measurement,setting,value
COc1ccc([C@H]2c3[nH]c4ccc(Cl)cc4c3CCN2C(=O)Oc2ccc(Cl)cc2)cc1 (racemic) [Compound #10],Clinical outcome (FIG. 22),"cancer in patients; patient having cholangiocarcinoma, after four previous therapeutic modalities",stabilization for a tumor marker
same,Clinical outcome (FIG. 21),"cancer in patients; patient having chondrosarcoma, after one previous therapeutic modality",stabilization and reduction in a number of clinical parameters and tumor markers
same,Clinical outcome (FIG. 20),"cancer in patients; patient having melanoma, after two previous therapeutic modalities",stabilization and reduction in a number of clinical parameters and tumor markers
same,Clinical outcome (FIG. 19),"cancer in patients; patient having thyroid cancer, after three previous therapeutic modalities",stabilization and reduction in a number of clinical parameters and tumor markers
same,IC50,HCV genotype 2a replicon,< 3 nM
same,Inhibition of stress-induced VEGF production (FIG. 1),[1],inhibit stress-induced VEGF production
